In patent EP2271935B1, “METHOD AND KIT FOR THE EX VIVO EVALUATION OF THE RESPONSE OF A TUMOR TO CONDITIONS TO BE TESTED” (Universität Leipzig, priority 2008, dated 2009):
pIC50: −log10 of the molar value. Where two headings read alike, the source gives them in different places.

Tested on: epithelial cell line KB (DSMZ ACC 136)
Experiment: MTT assay of proliferation under varied riboflavin content and light exposure
Format: cell-based, human
Text: To address this question, three media, a) the RPMI 1640 without riboflavin and phenol red that is used in the method according to the invention and was manufactured according to our specifications by Biochrom, as well as two different RPMI 1640 charges purchased from Invitrogen which were each containing 532 nmol/L riboflavin, b) a phenol red-free (Gibco 11835), and c) a conventional RPMI 1640 (Gibco 21875) with 13.284 µmol/L phenol red. All media were supplemented with 2 mmol/L L-alanyl-1-glutamine as stabilized glutamine source (Biochrom K0302 Lot 0755 S) and the same amount of 10% (v/v) of heat-inactivated fetal calf serum (FCS) that was purchased from Invitrogen (Lot 41Q7554K) with a yield of 198 nmol/L riboflavin. […] These medium concentrations define the riboflavin concentrations in controls (see below).
In addition to the influences exerted by the different types of media alone, the riboflavin-dependent impact on the outcome of the docetaxel treatment was investigated. For this purpose 100 µl/well of docetaxel dilutions containing threefold the concentration indicated were added into the wells of microwell plates. The following seven docetaxel concentrations were tested: 19.38, 38.75, 77.5, 155, 310, 620, and 1,240 pmol/L.
To examine photoactivation-dependent riboflavin-mediated effects disturbing the outcome of ex-vivo chemoresponse-evaluation by conventional cell culture medium, and in particular in the absence of flavin-protecting experimental conditions, varying amounts of riboflavin were added. A stock solution of 200 µM (-)-riboflavin (CAS 83-68-5, Sigma R9504, FW=376.37 g/mol, purity >99%, cell culture tested) in phosphate buffered saline was diluted to adjust in each case the highest final concentration in culture (this means: after completion of the assay by addition of the other two components to the final assay volume of 300 µL) to exactly 10 µmol/L. Serial log10-dilutions were made from this concentration in each corresponding medium. These gave final concentrations in cell culture of 10.000, 1.018, 0.12, and 0.03 µmol/L in the case of medium a) (the medium according to the method of the invention), and concentrations of 10.000, 1.449, 0.594, and 0.508 µmol/L using media b) and c).
In general, each combination of riboflavin and docetaxel were tested in duplicate, and controls without additional riboflavin in quadruplicate for each experimental setting in the same 96-well plate. The experimental conditions were as follows: For each of the used media, two different plates were prepared simultaneously and either handled completely under flavin-protecting conditions (illumination only by sodium discharge lamps with an emission wavelength of 589 nm [i]), or in the same bench (Thermo MSC 12) with the installed light inside their working chamber switched on. The dilution of docetaxel and those of riboflavin in the particular medium were prepared for all four plates of each medium type prior to the other working steps under flavin-protecting conditions. Thus the administrations of these dilutions took about 20 min either under flavin-protecting conditions or illuminated conditions. After completed preparation of the plates that thereafter contained 200 µL of both diluted compounds, the plates were incubated 2 h in the incubator to allow for adjustment of the appropriate pH.
In between the stock culture of KB was harvested by trypsination of a 3-days stock culture (exponential growth phase). Stock cultures of KB cells always were grown without any antibiotic or antimycotic in phenol red- and riboflavin-free RPMI 1640 supplemented with 10% (v/v) FCS and were adapted to this medium for more than five passages. They were always handled at room temperature or warmer and were never exposed to light other than the light of a sodium discharge lamp with an emission wavelength of 589 nm for at least five passages. […]

[1] = medium a) (plate 01), 10 µmol/L riboflavin

pIC50 (Homo sapiens, Epithelial cell, 0.5 h, Plate No. 11; Riboflavin 508 nmol/L; medium c) conventional RPMI 1640 with phenol red, bench lighting <30 min, read-out: IC50 for docetaxel with reference to control with same riboflavin content): 9.55
pIC50 (Homo sapiens, Epithelial cell, 0.5 h, Plate No. 11; Riboflavin 594 nmol/L; medium c) conventional RPMI 1640 with phenol red, bench lighting <30 min, read-out: IC50 for docetaxel with reference to control with same riboflavin content): 9.63
pIC50 (Homo sapiens, Epithelial cell, 0.5 h, Plate No. 11; Riboflavin 1449 nmol/L; medium c) conventional RPMI 1640 with phenol red, bench lighting <30 min, read-out: IC50 for docetaxel with reference to control with same riboflavin content): 9.56
pIC50 (Homo sapiens, Epithelial cell, 0.5 h, Plate No. 11; Riboflavin 10000 nmol/L; medium c) conventional RPMI 1640 with phenol red, bench lighting <30 min, read-out: IC50 for docetaxel with reference to control with same riboflavin content): 9.61
pIC50 (Homo sapiens, Epithelial cell, 0.5 h, Plate No. 12; Riboflavin 499 nmol/L; medium c) conventional RPMI 1640 with phenol red, bench lighting <30 min, daylight 30 min, read-out: IC50 for docetaxel with reference to control with same riboflavin content): 9.47
pIC50 (Homo sapiens, Epithelial cell, 0.5 h, Plate No. 12; Riboflavin 508 nmol/L; medium c) conventional RPMI 1640 with phenol red, bench lighting <30 min, daylight 30 min, read-out: IC50 for docetaxel with reference to control with same riboflavin content): 9.62
pIC50 (Homo sapiens, Epithelial cell, 0.5 h, Plate No. 12; Riboflavin 594 nmol/L; medium c) conventional RPMI 1640 with phenol red, bench lighting <30 min, daylight 30 min, read-out: IC50 for docetaxel with reference to control with same riboflavin content): 9.70
pIC50 (Homo sapiens, Epithelial cell, 0.5 h, Plate No. 12; Riboflavin 1449 nmol/L; medium c) conventional RPMI 1640 with phenol red, bench lighting <30 min, daylight 30 min, read-out: IC50 for docetaxel with reference to control with same riboflavin content): 9.82
pIC50 (Homo sapiens, Epithelial cell, Plate No. 01; Riboflavin 20 nmol/L; medium a) RPMI 1640 without riboflavin and phenol red, flavin-protecting conditions, read-out: IC50 for docetaxel with reference to control with same riboflavin content): 9.68
pIC50 (Homo sapiens, Epithelial cell, Plate No. 01; Riboflavin 30 nmol/L; medium a) RPMI 1640 without riboflavin and phenol red, flavin-protecting conditions, read-out: IC50 for docetaxel with reference to control with same riboflavin content): 9.69
pIC50 (Homo sapiens, Epithelial cell, Plate No. 01; Riboflavin 120 nmol/L; medium a) RPMI 1640 without riboflavin and phenol red, flavin-protecting conditions, read-out: IC50 for docetaxel with reference to control with same riboflavin content): 9.64
pIC50 (Homo sapiens, Epithelial cell, Plate No. 01; Riboflavin 1018 nmol/L; medium a) RPMI 1640 without riboflavin and phenol red, flavin-protecting conditions, read-out: IC50 for docetaxel with reference to control with same riboflavin content): 9.65
pIC50 (Homo sapiens, Epithelial cell, Plate No. 01; Riboflavin 10000 nmol/L; medium a) RPMI 1640 without riboflavin and phenol red, flavin-protecting conditions, read-out: IC50 for docetaxel with reference to control with same riboflavin content): 9.59
pIC50 (Homo sapiens, Epithelial cell, Plate No. 05; Riboflavin 499 nmol/L; medium b) phenol red-free RPMI 1640, flavin-protecting conditions, read-out: IC50 for docetaxel with reference to control with same riboflavin content): 9.69
pIC50 (Homo sapiens, Epithelial cell, Plate No. 05; Riboflavin 508 nmol/L; medium b) phenol red-free RPMI 1640, flavin-protecting conditions, read-out: IC50 for docetaxel with reference to control with same riboflavin content): 9.74
pIC50 (Homo sapiens, Epithelial cell, Plate No. 05; Riboflavin 594 nmol/L; medium b) phenol red-free RPMI 1640, flavin-protecting conditions, read-out: IC50 for docetaxel with reference to control with same riboflavin content): 9.71
pIC50 (Homo sapiens, Epithelial cell, Plate No. 05; Riboflavin 1449 nmol/L; medium b) phenol red-free RPMI 1640, flavin-protecting conditions, read-out: IC50 for docetaxel with reference to control with same riboflavin content): 9.71
pIC50 (Homo sapiens, Epithelial cell, Plate No. 05; Riboflavin 10000 nmol/L; medium b) phenol red-free RPMI 1640, flavin-protecting conditions, read-out: IC50 for docetaxel with reference to control with same riboflavin content): 9.62
pIC50 (Homo sapiens, Epithelial cell, Plate No. 09; Riboflavin 499 nmol/L; medium c) conventional RPMI 1640 with phenol red, flavin-protecting conditions, read-out: IC50 for docetaxel with reference to control with same riboflavin content): 9.63
pIC50 (Homo sapiens, Epithelial cell, Plate No. 09; Riboflavin 508 nmol/L; medium c) conventional RPMI 1640 with phenol red, flavin-protecting conditions, read-out: IC50 for docetaxel with reference to control with same riboflavin content): 9.72
pIC50 (Homo sapiens, Epithelial cell, Plate No. 09; Riboflavin 594 nmol/L; medium c) conventional RPMI 1640 with phenol red, flavin-protecting conditions, read-out: IC50 for docetaxel with reference to control with same riboflavin content): 9.70
pIC50 (Homo sapiens, Epithelial cell, Plate No. 09; Riboflavin 1449 nmol/L; medium c) conventional RPMI 1640 with phenol red, flavin-protecting conditions, read-out: IC50 for docetaxel with reference to control with same riboflavin content): 9.55
pIC50 (Homo sapiens, Epithelial cell, Plate No. 09; Riboflavin 10000 nmol/L; medium c) conventional RPMI 1640 with phenol red, flavin-protecting conditions, read-out: IC50 for docetaxel with reference to control with same riboflavin content): 9.40
pIC50 (Homo sapiens, Epithelial cell, medium a) (plate 01), 10 µmol/L riboflavin, flavin-protecting conditions, read-out: IC50 relating to medium control): 9.65
pIC50 (Homo sapiens, Epithelial cell, medium a) (plate 01), 10 µmol/L riboflavin, flavin-protecting conditions, read-out: IC50 with reference to individual control): 9.59
pIC50 (Homo sapiens, Epithelial cell, plates 01, 05, 09 handled completely under flavin-protecting conditions, three types of RPMI 1640, read-out: IC50 values for docetaxel): ~9.70
IC50 as % of the IC50 at 20 nmol/L riboflavin, relating to medium control [1]: 107%
IC50 as % of the IC50 detected in a) at 20 nmol/L riboflavin, individual control [1]: 128%
Structure (SMILES): CC(=O)O[C@@]12CO[C@@H]1C[C@H](O)[C@@]1(C)C(=O)[C@H](O)C3=C(C)[C@@H](OC(=O)[C@H](O)[C@@H](NC(=O)OC(C)(C)C)c4ccccc4)C[C@@](O)([C@@H](OC(=O)c4ccccc4)[C@H]21)C3(C)C [docetaxel]
pIC50 (Homo sapiens, Epithelial cell, 0.5 h, Plate No. 11; Riboflavin 499 nmol/L; medium c), bench lighting <30 min, read-out: IC50 for docetaxel normalized to medium control of medium with same riboflavin content): 10.00
pIC50 (Homo sapiens, Epithelial cell, 0.5 h, Plate No. 11; Riboflavin 508 nmol/L; medium c), bench lighting <30 min, read-out: IC50 for docetaxel normalized to medium control of medium with same riboflavin content): 9.90
pIC50 (Homo sapiens, Epithelial cell, 0.5 h, Plate No. 11; Riboflavin 594 nmol/L; medium c), bench lighting <30 min, read-out: IC50 for docetaxel normalized to medium control of medium with same riboflavin content): 9.99
pIC50 (Homo sapiens, Epithelial cell, 0.5 h, Plate No. 11; Riboflavin 1449 nmol/L; medium c), bench lighting <30 min, read-out: IC50 for docetaxel normalized to medium control of medium with same riboflavin content): 9.91
pIC50 (Homo sapiens, Epithelial cell, 0.5 h, Plate No. 11; Riboflavin 10000 nmol/L; medium c), bench lighting <30 min, read-out: IC50 for docetaxel normalized to medium control of medium with same riboflavin content): 9.96
pIC50 (Homo sapiens, Epithelial cell, 0.5 h, Plate No. 12; Riboflavin 499 nmol/L; medium c), bench lighting <30 min, daylight 30 min, read-out: IC50 for docetaxel normalized to medium control of medium with same riboflavin content): 10.00
pIC50 (Homo sapiens, Epithelial cell, 0.5 h, Plate No. 12; Riboflavin 508 nmol/L; medium c), bench lighting <30 min, daylight 30 min, read-out: IC50 for docetaxel normalized to medium control of medium with same riboflavin content): 10.15
pIC50 (Homo sapiens, Epithelial cell, 0.5 h, Plate No. 12; Riboflavin 594 nmol/L; medium c), bench lighting <30 min, daylight 30 min, read-out: IC50 for docetaxel normalized to medium control of medium with same riboflavin content): 10.23
pIC50 (Homo sapiens, Epithelial cell, 0.5 h, Plate No. 12; Riboflavin 1449 nmol/L; medium c), bench lighting <30 min, daylight 30 min, read-out: IC50 for docetaxel normalized to medium control of medium with same riboflavin content): 10.35
pIC50 (Homo sapiens, Epithelial cell, Plate No. 01; Riboflavin 20 nmol/L; medium a), flavin-protecting conditions, read-out: IC50 for docetaxel normalized to medium control of medium with same riboflavin content): 10.00
pIC50 (Homo sapiens, Epithelial cell, Plate No. 01; Riboflavin 30 nmol/L; medium a), flavin-protecting conditions, read-out: IC50 for docetaxel normalized to medium control of medium with same riboflavin content): 10.01
pIC50 (Homo sapiens, Epithelial cell, Plate No. 01; Riboflavin 120 nmol/L; medium a), flavin-protecting conditions, read-out: IC50 for docetaxel normalized to medium control of medium with same riboflavin content): 9.96
pIC50 (Homo sapiens, Epithelial cell, Plate No. 01; Riboflavin 1018 nmol/L; medium a), flavin-protecting conditions, read-out: IC50 for docetaxel normalized to medium control of medium with same riboflavin content): 9.97
pIC50 (Homo sapiens, Epithelial cell, Plate No. 01; Riboflavin 10000 nmol/L; medium a), flavin-protecting conditions, read-out: IC50 for docetaxel normalized to medium control of medium with same riboflavin content): 9.91
pIC50 (Homo sapiens, Epithelial cell, Plate No. 05; Riboflavin 499 nmol/L; medium b), flavin-protecting conditions, read-out: IC50 for docetaxel normalized to medium control of medium with same riboflavin content): 10.00
pIC50 (Homo sapiens, Epithelial cell, Plate No. 05; Riboflavin 508 nmol/L; medium b), flavin-protecting conditions, read-out: IC50 for docetaxel normalized to medium control of medium with same riboflavin content): 10.06
pIC50 (Homo sapiens, Epithelial cell, Plate No. 05; Riboflavin 594 nmol/L; medium b), flavin-protecting conditions, read-out: IC50 for docetaxel normalized to medium control of medium with same riboflavin content): 10.02
pIC50 (Homo sapiens, Epithelial cell, Plate No. 05; Riboflavin 1449 nmol/L; medium b), flavin-protecting conditions, read-out: IC50 for docetaxel normalized to medium control of medium with same riboflavin content): 10.02
pIC50 (Homo sapiens, Epithelial cell, Plate No. 05; Riboflavin 10000 nmol/L; medium b), flavin-protecting conditions, read-out: IC50 for docetaxel normalized to medium control of medium with same riboflavin content): 9.94
pIC50 (Homo sapiens, Epithelial cell, Plate No. 09; Riboflavin 499 nmol/L; medium c), flavin-protecting conditions, read-out: IC50 for docetaxel normalized to medium control of medium with same riboflavin content): 10.00
pIC50 (Homo sapiens, Epithelial cell, Plate No. 09; Riboflavin 508 nmol/L; medium c), flavin-protecting conditions, read-out: IC50 for docetaxel normalized to medium control of medium with same riboflavin content): 10.09
pIC50 (Homo sapiens, Epithelial cell, Plate No. 09; Riboflavin 594 nmol/L; medium c), flavin-protecting conditions, read-out: IC50 for docetaxel normalized to medium control of medium with same riboflavin content): 10.06
pIC50 (Homo sapiens, Epithelial cell, Plate No. 09; Riboflavin 1449 nmol/L; medium c), flavin-protecting conditions, read-out: IC50 for docetaxel normalized to medium control of medium with same riboflavin content): 9.91
pIC50 (Homo sapiens, Epithelial cell, Plate No. 09; Riboflavin 10000 nmol/L; medium c), flavin-protecting conditions, read-out: IC50 for docetaxel normalized to medium control of medium with same riboflavin content): 9.77
